According to the NIST ThermoML archive (doi:10.1016/j.jct.2011.05.036):
Numbers after ± are expanded uncertainties.

Experiment: mn = molality of the nth substance listed, in mol/kg
Conditions: 298.15 K, 101 kPa, Liquid, Vibrating tube method

Compound | mass density (m1 = 0.1262) [kg/m3] | mass density (m1 = 0.2647) [kg/m3] | mass density (m1 = 0.6529) [kg/m3] | mass density (m1 = 1.012) [kg/m3] | mass density (m1 = 1.477) [kg/m3] | mass density (m1 = 2.03) [kg/m3] | mass density (m1 = 2.537) [kg/m3] | mass density (m1 = 3.196) [kg/m3] | mass density (m1 = 3.75) [kg/m3] | mass density (m1 = 0.0212) [kg/m3] | mass density (m1 = 0.0584) [kg/m3] | mass density (m1 = 0.1012) [kg/m3] | mass density (m1 = 0.2396) [kg/m3] | mass density (m1 = 0.6942) [kg/m3] | mass density (m1 = 1.248) [kg/m3] | mass density (m1 = 2.273) [kg/m3] | mass density (m1 = 3.243) [kg/m3] | mass density (m1 = 4.387) [kg/m3] | mass density (m1 = 5.781) [kg/m3] | mass density (m1 = 7.087) [kg/m3]
O=S(=O)(O)CC(O)CN1CCOCC1 (stereo not given) [3-morpholino-2-hydroxypropanesulfonic acid] + O | 1006.93 ± 0.14 | 1017.35 ± 0.14 | 1044.51 ± 0.14 | 1067.2 ± 0.14 | 1093.32 ± 0.15 | 1120.89 ± 0.16 | 1142.98 ± 0.17 | 1168.39 ± 0.19 | 1187 ± 0.2 |  |  |  |  |  |  |  |  |  |  | 
O=S(=O)(O)CCCN1CCOCC1 [4-morpholinepropanesulfonic acid] + O |  |  |  |  |  |  |  |  |  | 998.4 ± 0.13 | 1000.76 ± 0.13 | 1003.44 ± 0.13 | 1011.89 ± 0.13 | 1037.46 ± 0.13 | 1064.7 ± 0.13 | 1106.41 ± 0.14 | 1138.03 ± 0.15 | 1168.14 ± 0.16 | 1195.72 ± 0.17 | 1217.61 ± 0.18
